Legend:
human alpha 7-wt nAChR = target: T1, human alpha 7-wt nAChR (Homo sapiens, UniProt P36544); assay: Ca2+ flux imaging (FDSS) (Protocol B); format: cell-based; conditions: for EC50: potentiation of 100 μM choline, compounds 0.01 μM to 30 μM, read-out: a7-PAM-G_[33]_pEC50 pEC50 (converted); for Emax: read-out: a7-PAM-G_[33]_Eff_Curve_FI % Efficacy
T1 construct: expressed in transfected cells
Outline: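 Fluo-4AM-loaded cells expressing human α7-wt nAChR, in HBSS with 10 mM HEPES, 5 mM CaCl2, 0.1% BSA, received compound (0.01–30 μM), typically 10 min before 100 μM choline, with calcium flux read in real time. Potentiation is relative to choline alone (100%); EC50 from sigmoidal curves.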

[1] = target: T2, human alpha 7-wt nAChR-expressing GH4C1 cells (Homo sapiens, UniProt P36544); assay: Patch-clamp current recording (whole-cell voltage-clamp, PAM type classification); format: cell-based; set-up: key: Type 0 compounds minimally change the effect size of the current elicited by 1 mM choline.; Type 1 compounds enhance the effect size of the current elicited by 1 mM choline but minimally alter the kinetics of the receptor.; Type 2 compounds enhance the effect size of the current elicited by 1 mM choline while reducing the rate and/or the extent of desensitization.; Type 3 compounds enhance the effect size of the current elicited by 1 mM choline. When tested at higher concentrations up to 10 μM they completely inhibit desensitization; Type 4 compounds allow for an initial desensitization of the receptor followed by a re-opening of the receptor during agonist application; conditions: 1 mM choline
T2 construct: expressed in transfected cells
Description: The compounds of the present invention are classified as type 1-4, based on qualitative kinetic properties, as determined by whole-cell voltage-clamp recordings. This classification is based on the effect of an alpha 7 PAM compound, as described hereinbefore, on the signal elicited by an agonist application. In particular, said agonist is choline at a concentration of 1 mM. In a preferred experimental setting, said alpha 7 PAM compound and choline are simultaneously applied to the cell, as described hereinafter. Desensitization is defined as the closure of the receptor upon activation during the application of the agonist in whole-cell voltage-clamp electrophysiology measurements seen as the reduction of the […] current after initial activation by the agonist.
The definition of the PAM types 1-4 is described hereinafter: • Type 0 compounds minimally change the effect size of the current elicited by 1 mM choline. • Type 1 compounds enhance the effect size of the current elicited by 1 mM choline but minimally alter the kinetics of the receptor. In particular, the rate and the extent of desensitization and of deactivation of the receptor elicited by the agonist is not affected. The compound-modulated response to 1 mM choline, therefore, is close to a linear scaling of the 1 mM choline response in absence of the alpha 7 PAM compound. • Type 2 compounds enhance the effect size of the current elicited by 1 mM choline while reducing the rate and/or the extent of desensitization. Deactivation of the receptor is generally unaffected. • Type 3 compounds enhance the effect size of the current elicited by 1 mM choline. […] Deactivation of the receptor may be slowed down • Type 4 compounds allow for an initial desensitization of the receptor followed by a re-opening of the receptor during agonist application. At low-potency concentrations of the alpha 7 PAM compound, the agonist-induced activation, which is followed by desensitization, can still be separated from the compound-induced re-opening as an initial inward current-maximum. At higher potency concentrations of the alpha 7 PAM compound, the re-opening occurs faster than the closure due to desensitization so that the initial current-maximum disappears.
A compound was considered to have interesting PAM-like activity when the potentiation of the peak current was at least 200% compared to the control choline response (=100%). Such compounds are classified as belonging to a particular PAM type in the Experimental Part. Compounds not meeting the condition are not classified as belonging to a particular PAM-type.
The compounds also have a potentiating effect on the response to choline when measured by whole-cell patch clamp electrophysiology in GH4C1 cells stably over-expressing the human wild-type alpha 7 receptor.
Patch-clamp recording from mammalian cells has provided a powerful means of assessing the function of membrane-bound proteins thought to be subunits of ligand-gated ion channels. Activation of such proteins by endogenous or exogenous ligands cause opening of a pore associated with the receptor through which ions flow down their electrochemical gradient. In the case of the human alpha 7-wt nAChR-expressing GH4C1 recombinant cell line the preferential permeability to calcium of this receptor means that calcium flows into the cell upon activation by ACh, choline and other nicotinic ligands giving rise to a calcium current. Since this receptor rapidly desensitizes in the presence of agonist it is important that an application system is used which is capable of very rapid switching of solutions (<100 ms) to prevent partial or full desensitisation of receptor responses coincident with the time of agonist application. Consequently, a second convenient technique to assess the enhancement of nicotinic efficacy is a patch-clamp recording from human alpha 7-wt nAChR-expressing GH4C1 cells coupled with a rapid-application system. […]

[2] = efficacy of 100 μM choline defined as 100% in the absence of a PAM

T1 sequence (P36544 23-502): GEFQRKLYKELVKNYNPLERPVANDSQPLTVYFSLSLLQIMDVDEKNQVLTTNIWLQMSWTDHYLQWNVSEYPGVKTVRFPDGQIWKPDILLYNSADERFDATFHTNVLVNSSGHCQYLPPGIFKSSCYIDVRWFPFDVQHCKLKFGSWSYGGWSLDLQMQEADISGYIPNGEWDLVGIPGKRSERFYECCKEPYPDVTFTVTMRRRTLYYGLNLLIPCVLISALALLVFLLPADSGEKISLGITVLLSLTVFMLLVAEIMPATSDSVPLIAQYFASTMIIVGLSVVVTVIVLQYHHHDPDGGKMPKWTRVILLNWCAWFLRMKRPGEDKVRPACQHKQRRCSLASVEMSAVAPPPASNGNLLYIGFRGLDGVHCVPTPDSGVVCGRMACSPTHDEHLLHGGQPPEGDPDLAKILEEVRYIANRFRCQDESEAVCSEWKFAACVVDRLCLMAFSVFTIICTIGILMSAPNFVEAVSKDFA
T2 sequence (P36544 23-502): as above

For `Cc1cc(-c2sc(N3CCOC(C)C3)nc2CNC(=O)C(C)C)cc(C)n1` (single isomer, unassigned) [Compound 71, N-[[5-(2,6-dimethyl-4-pyridinyl)-2-[(2S*)-2-methyl-4-morpholinyl]-4-thiazolyl]methyl]-2-methyl-propanamide], the EC50 (human alpha 7-wt nAChR) was 692 nM, the “PAM_Type PAM type” value [1] was 2 and the melting point was 188 °C.
For `Cc1cc(-c2sc(N3CCOC(C)C3)nc2CNC(=O)CC2CC2)cc(C)n1` (single isomer, unassigned) [Compound 75, N-[[5-(2,6-dimethyl-4-pyridinyl)-2-[(2R*)-2-methyl-4-morpholinyl]-4-thiazolyl]methyl]-cyclopropaneacetamide], the “a7-PAM-G_[33]_Eff_Curve_FI % Efficacy” value (human alpha 7-wt nAChR; [2]) was 819%, the EC50 (human alpha 7-wt nAChR) was 1020 nM and the “PAM_Type PAM type” value [1] was 2. It also gave a melting point of 170 °C.
For `Cc1cc(-c2sc(N3C[C@@H](C)O[C@@H](C)C3)nc2CNC(=O)c2c(C)noc2C)cc(C)n1` [Compound 25, N-[[2-[(2R,6S)-2,6-dimethyl-4-morpholinyl]-5-(2,6-dimethyl-4-pyridinyl)-4-thiazolyl]methyl]-3,5-dimethyl-4-isoxazolecarboxamide], the Emax (human alpha 7-wt nAChR; [2]) was 235%, the EC50 (human alpha 7-wt nAChR) was 813 nM and the “PAM_Type PAM type” value [1] was 0.
With `Cc1cc(-c2sc(N3C[C@@H](C)O[C@@H](C)C3)nc2CNC(=O)c2cccc(F)c2F)cc(C)n1` [Compound 32, N-[[2-[(2R,6S)-2,6-dimethyl-4-morpholinyl]-5-(2,6-dimethyl-4-pyridinyl)-4-thiazolyl]methyl]-2,3-difluoro-benzamide] the Emax (human alpha 7-wt nAChR; [2]) was 422%, the EC50 (human alpha 7-wt nAChR) was 380 nM and the “PAM_Type PAM type” value [1] was 1.
For `Cc1cc(-c2sc(N3C[C@@H](C)O[C@@H](C)C3)nc2CNC(=O)C(C)C)cc(C)n1` [Compound 40, N-[[2-[(2R,6S)-2,6-dimethyl-4-morpholinyl]-5-(2,6-dimethyl-4-pyridinyl)-4-thiazolyl]methyl]-2-methyl-propanamide], the Emax (human alpha 7-wt nAChR; [2]) was 965%, the EC50 (human alpha 7-wt nAChR) was 100 nM and the “PAM_Type PAM type” value [1] was 2.
For `Cc1cc(-c2sc(N3C[C@@H](C)O[C@@H](C)C3)nc2CNC(=O)C2CC2)cc(C)n1` [Compound 48, N-[[2-[(2R,6S)-2,6-dimethyl-4-morpholinyl]-5-(2,6-dimethyl-4-pyridinyl)-4-thiazolyl]methyl]-cyclopropanecarboxamide], the EC50 (human alpha 7-wt nAChR) was 661 nM and the “PAM_Type PAM type” value [1] was 2.
For `COc1cc(-c2sc(N3C[C@@H](C)O[C@@H](C)C3)nc2CNC(=O)c2conc2C)cc(C)n1` [Compound 81, N-[[2-[(2R,6S)-2,6-dimethyl-4-morpholinyl]-5-(2-methoxy-6-methyl-4-pyridinyl)-4-thiazolyl]methyl]-3-methyl-4-isoxazolecarboxamide], the Emax (human alpha 7-wt nAChR; [2]) was 384%, the EC50 (human alpha 7-wt nAChR) was 295 nM and the “PAM_Type PAM type” value [1] was 2.
In the case of `Cc1cc(-c2sc(N3C[C@@H](C)O[C@@H](C)C3)nc2CNC(=O)C2CCC2)ccn1` [Compound 89, N-[[2-[(2R,6S)-2,6-dimethyl-4-morpholinyl]-5-(2-methyl-4-pyridinyl)-4-thiazolyl]methyl]-cyclobutanecarboxamide], the Emax (human alpha 7-wt nAChR; [2]) is reported as 528%, the EC50 (human alpha 7-wt nAChR) is reported as 631 nM and the “PAM_Type PAM type” value [1] is reported as 2.
With `Cc1cc(-c2sc(N3C[C@@H](C)O[C@@H](C)C3)nc2CNC(=O)c2nc(C)oc2C)cc(C)n1` [Compound 134, N-[[2-[(2R,6S)-2,6-dimethyl-4-morpholinyl]-5-(2,6-dimethyl-4-pyridinyl)-4-thiazolyl]methyl]-2,5-dimethyl-4-oxazolecarboxamide] the Emax (human alpha 7-wt nAChR; [2]) was 464%, the EC50 (human alpha 7-wt nAChR) was 2400 nM and the “PAM_Type PAM type” value [1] was 0.
For `Cc1cc(-c2sc(N3C[C@@H](C)O[C@@H](C)C3)nc2CNC(=O)c2ccc(S(N)(=O)=O)cc2)cc(C)n1` [Compound 144, 4-(aminosulfonyl)-N-[[2-[(2R,6S)-2,6-dimethyl-4-morpholinyl]-5-(2,6-dimethyl-4-pyridinyl)-4-thiazolyl]methyl]-benzamide], the EC50 (human alpha 7-wt nAChR) was 2140 nM and the “PAM_Type PAM type” value [1] was 2.
With `Cc1cc(-c2sc(N3C[C@@H](C)O[C@@H](C)C3)nc2CNC(=O)c2oncc2C)cc(C)n1` [Compound 148, N-[[2-[(2R,6S)-2,6-dimethyl-4-morpholinyl]-5-(2,6-dimethyl-4-pyridinyl)-4-thiazolyl]methyl]-4-methyl-5-isoxazolecarboxamide] the EC50 (human alpha 7-wt nAChR) was 1230 nM and the “PAM_Type PAM type” value [1] was 0.
With `Cc1cc(-c2sc(N3C[C@@H](C)O[C@@H](C)C3)nc2CNC(=O)C2CC(=O)OC2(C)C)cc(C)n1` (stereo partly drawn) [Compound 154, N-[[2-[(2R,6S)-2,6-dimethyl-4-morpholinyl]-5-(2,6-dimethyl-4-pyridinyl)-4-thiazolyl]methyl]tetrahydro-2,2-dimethyl-5-oxo-3-furancarboxamide] the Emax (human alpha 7-wt nAChR; [2]) was 791%, the EC50 (human alpha 7-wt nAChR) was 871 nM and the “PAM_Type PAM type” value [1] was 1.
With `Cc1cc(-c2sc(N3C[C@@H](C)O[C@@H](C)C3)nc2CNC(=O)Cc2c(C)noc2C)cc(C)n1` [Compound 166, N-[[2-[(2R,6S)-2,6-dimethyl-4-morpholinyl]-5-(2,6-dimethyl-4-pyridinyl)-4-thiazolyl]methyl]-3,5-dimethyl-4-isoxazoleacetamide] the EC50 (human alpha 7-wt nAChR) was 525 nM and the “PAM_Type PAM type” value [1] was 1.
In the case of `Cc1cc(-c2sc(N3C[C@@H](C)O[C@@H](C)C3)nc2CNC(=O)CC(F)(F)F)cc(C)n1` [Compound 168, N-[[2-[(2R,6S)-2,6-dimethyl-4-morpholinyl]-5-(2,6-dimethyl-4-pyridinyl)-4-thiazolyl]methyl]-3,3,3-trifluoro-propanamide], the Emax (human alpha 7-wt nAChR; [2]) is reported as 924%, the EC50 (human alpha 7-wt nAChR) is reported as 69.2 nM and the “PAM_Type PAM type” value [1] is reported as 1.
In the case of `Cc1cc(-c2sc(N3C[C@@H](C)O[C@@H](C)C3)nc2CNC(=O)COCC(F)(F)F)cc(C)n1` [Compound 175, N-[[2-[(2R,6S)-2,6-dimethyl-4-morpholinyl]-5-(2,6-dimethyl-4-pyridinyl)-4-thiazolyl]methyl]-2-(2,2,2-trifluoroethoxy)-acetamide], the EC50 (human alpha 7-wt nAChR) is reported as 525 nM and the “PAM_Type PAM type” value [1] is reported as 1.
In the case of `Cc1cc(-c2sc(N3C[C@@H](C)O[C@@H](C)C3)nc2CNC(=O)C(C)C2CC2)cc(C)n1` (stereo partly drawn) [Compound 179, N-[[2-[(2R,6S)-2,6-dimethyl-4-morpholinyl]-5-(2,6-dimethyl-4-pyridinyl)-4-thiazolyl]methyl]-α-methyl-cyclopropaneacetamide], the Emax (human alpha 7-wt nAChR; [2]) is reported as 707%, the EC50 (human alpha 7-wt nAChR) is reported as 97.7 nM and the “PAM_Type PAM type” value [1] is reported as 2.
With `Cc1cc(-c2sc(N3CCOC(C(F)(F)F)C3)nc2CNC(=O)c2ccc(F)cc2C)cc(C)n1` (stereo not drawn) [Compound 193, N-[[5-(2,6-dimethyl-4-pyridinyl)-2-[2-(trifluoromethyl)-4-morpholinyl]-4-thiazolyl]methyl]-4-fluoro-2-methyl-benzamide] the EC50 (human alpha 7-wt nAChR) was 20.9 nM and the “PAM_Type PAM type” value [1] was 4.
For `Cc1cc(F)ccc1C(=O)NCc1nc(N2C[C@@H](C)O[C@@H](C)C2)sc1-c1ccnc(C(F)(F)F)c1` [Compound 198, N-[[2-[(2R,6S)-2,6-dimethyl-4-morpholinyl]-5-[2-(trifluoromethyl)-4-pyridinyl]-4-thiazolyl]methyl]-4-fluoro-2-methyl-benzamide], the EC50 (human alpha 7-wt nAChR) was 148 nM and the “PAM_Type PAM type” value [1] was 1.

— patent US8637510B2, “Morpholinothiazoles as alpha 7 positive allosteric modulators” (Janssen Pharmaceutica NV, priority 2009, dated 2014)
